Results published in patent publication EP0400785A2, “Ultraviolet curable phenyl and acrylamide group-containing silicone compositions” (DOW CORNING CORPORATION, priority 1989, dated 1990).

What was measured:
Assay type in all cases: physicochemical
[1] = Durometer hardness of cured composition (Shore scales); details: in Acrylamide-polymer B; 0.25 inch thick section of cured material
Text: (§1) Compositions were made from Acrylamide-polymer B and various compounds which might be considered useful as photosensitization systems. These included P-1 = 2 hydroxy-2-methylphenylpropan-1-one (Darocur^TM 1173) P-2 = diethoxyacetophenone P-3 = (1-hydroxycyclohexyl)phenylmethanone (Irgacure^TM 184) P-4 = benzophenone P-5 = a 50/50 weight mixture of P-1 and diisopropylaminoethanol. Each of the photosensitization systems were used in an amount of one weight percent except P-5 which was used in an amount of two weight percent. The weight percentage was based on the weight of Acrylamide-blend B. Each of the compositions were cured for a defined period of time by exposure to ultraviolet radiation on the LCU described in Example 2, set for 3 seconds per pass which measured about 400 mJ/cm² using a Light Bug. The hardness of the cured composition was measured by using equipment manufactured by Instrument MFG Co. on the Shore OO durometer scale using a 0.25 inch thick section of the cured material. The durometer was determined initially, after heat aging for 20 hours at 150°C. in an oven and after 20 hours in an autoclave at 12 1°C. and 15 psi pressure.
(§2) A gel composition was prepared by mixing 98 parts of Acrylamide-blend E, 1 part of (1-hydroxycyclohexyl)phenylmethanone and 1 part of a heat stability additive. Sodium and potassium contents were determined on uncured samples of the gel composition by using flame photometry of acid ashed gel composition after removal of silica by treatment with hydrofluoric acid. The amount of sodium and potassium were each less than 2 ppm. […] The irradiation dose was determined by using an IL 390 Light Bug manufactured by International Light of (Newburyport, Mass.). […] As determined by ASTM-D150, the dielectric constant at 100 Hz was 3.0 and at 100,000 Hz was 3.0. As determined by ASTM-D150, the dissipation factor at 100 Hz was 0.006 and at 100,000 Hz was 0.002. The glass transition temperature was -113°C. and there was no melting transition temperature as determined by differential scanning calorimetry. The thermal stability was determined by placing a sample of the cured gel composition in a forced air oven at 150°C. […] The autoclave stability was determined by placing a sample of cured gel composition in an autoclave at 121°C. with a pressure of 2.1 kg/cm².
(§3) A composition was prepared by blending 67 parts of Acrylamide-polymer D, 25 parts of 1,4 -butanediol diacrylate, 3 parts of 1-hydroxy-2-methyl-1-phenylpropan-1-one, 5 parts of an adhesion additive, 100 ppm of phenothiazine and 100 ppm of the monomethyl ether of hydroquinone. […] The ionic purity was determined and there was less than 2 ppm of sodium and less than 2 ppm potassium. […]

[2] = Autoclave stability of cured composition at 121°C (durometer); details: in Acrylamide-polymer B; after 20 hours in an autoclave at 12 1°C and 15 psi
Text: as §1, §2, §3

[3] = Heat aging / thermal stability of cured composition in oven at 150°C (durometer); details: in Acrylamide-polymer B; after 20 hours at 150°C in an oven
Text: as §1, §2, §3

## CC(C)(O)C(=O)c1ccccc1 [P-1, 2 hydroxy-2-methylphenylpropan-1-one]
[1]
  DUROMETER INITIAL: 45 Shore OO
[2]
  DUROMETER AUTOCLAVE: 39 Shore OO
[3]
  DUROMETER HEAT AGED: 36 Shore OO

## O=C(c1ccccc1)C1(O)CCCCC1 [P-3, (1-hydroxycyclohexyl)phenylmethanone]
[1]
  DUROMETER INITIAL: 41 Shore OO
[2]
  DUROMETER AUTOCLAVE: 40 Shore OO
[3]
  DUROMETER HEAT AGED: 42 Shore OO

## O=C(c1ccccc1)c1ccccc1 [P-4, benzophenone]
[1]
  DUROMETER INITIAL: 44 Shore OO
[2]
  DUROMETER AUTOCLAVE: 44 Shore OO
[3]
  DUROMETER HEAT AGED: 43 Shore OO

## CCOC(OCC)C(=O)c1ccccc1 [P-2, diethoxyacetophenone]
[1]
  DUROMETER INITIAL: 42 Shore OO
[2]
  DUROMETER AUTOCLAVE: 47 Shore OO
[3]
  DUROMETER HEAT AGED: 30 Shore OO
